# Measurements from ChEMBL document CHEMBL1133601, “Methyl-substituted dispiro-1,2,4,5-tetraoxanes: correlations of structural studies with antimalarial activity” (J Med Chem, 2000).
# Experiments:
# Plasmodium falciparum [1] = assay: In vitro antimalarial activity against Plasmodium falciparum W2 (Indochina); type: functional, organism-based
# Plasmodium falciparum [2] = assay: In vitro antimalarial activity against Plasmodium falciparum D6 (Sierra Leone); type: functional, organism-based
SMILES,IC50 (Plasmodium falciparum [1]) [nM],IC50 (Plasmodium falciparum [2]) [nM]
C[C@@H]1CC[C@H]2[C@@H](C)C(=O)O[C@@H]3O[C@@]4(C)CC[C@@H]1[C@]32OO4 [ARTEMISININ],7.3,8.4
C[C@@H]1CCC[C@@H](C)C12OOC1(OO2)[C@@H](C)CCC[C@@H]1C,> 1000,> 1000
CC1(C)CCCCC12OOC1(CCCCC1(C)C)OO2 (stereo unspecified),> 1000,> 1000
